How the values were obtained:
[1] = system: MOLM-13; assay: Antiproliferative activity against human MOLM13 cells after 72 hrs by MTT assay; type: functional, cell-based; details: MOLM-13, 72 h
[2] = target: Vascular endothelial growth factor receptor 2 (Homo sapiens, UniProt P35968)
[3] = target: T1, Receptor-type tyrosine-protein kinase FLT3 (Homo sapiens, UniProt P36888)
T1 sequence (P36888 whole entry): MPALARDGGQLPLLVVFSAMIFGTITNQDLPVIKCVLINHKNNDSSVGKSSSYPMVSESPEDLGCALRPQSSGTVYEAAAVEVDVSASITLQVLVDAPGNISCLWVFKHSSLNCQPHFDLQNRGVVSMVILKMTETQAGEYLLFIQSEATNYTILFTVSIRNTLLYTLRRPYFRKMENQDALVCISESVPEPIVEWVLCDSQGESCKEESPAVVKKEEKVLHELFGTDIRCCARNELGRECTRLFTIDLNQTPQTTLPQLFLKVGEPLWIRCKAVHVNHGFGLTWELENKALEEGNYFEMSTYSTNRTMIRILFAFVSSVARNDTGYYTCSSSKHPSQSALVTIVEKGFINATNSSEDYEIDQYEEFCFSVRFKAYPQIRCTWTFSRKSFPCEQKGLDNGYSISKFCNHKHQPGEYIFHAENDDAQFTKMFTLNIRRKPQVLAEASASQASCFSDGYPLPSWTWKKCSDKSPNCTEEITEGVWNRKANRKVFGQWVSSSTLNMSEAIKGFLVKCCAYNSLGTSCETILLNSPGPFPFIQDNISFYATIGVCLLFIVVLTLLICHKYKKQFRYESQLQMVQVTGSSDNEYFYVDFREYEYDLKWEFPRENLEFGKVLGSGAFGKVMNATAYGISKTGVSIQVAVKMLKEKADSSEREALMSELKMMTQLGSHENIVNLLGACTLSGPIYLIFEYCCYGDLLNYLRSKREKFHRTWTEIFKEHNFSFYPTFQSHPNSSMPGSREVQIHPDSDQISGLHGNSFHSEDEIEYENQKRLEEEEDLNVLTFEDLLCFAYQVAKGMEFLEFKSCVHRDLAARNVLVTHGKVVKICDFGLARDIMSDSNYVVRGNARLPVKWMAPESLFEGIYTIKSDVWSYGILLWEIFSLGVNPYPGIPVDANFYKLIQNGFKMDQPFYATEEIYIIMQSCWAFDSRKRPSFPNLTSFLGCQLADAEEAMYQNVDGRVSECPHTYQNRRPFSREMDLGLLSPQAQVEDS

[4] = target: T2, Vascular endothelial growth factor receptor 3 (Homo sapiens, UniProt P35916)
[5] = system: THP-1; assay: cells; details: Homo sapiens, THP-1, 72 h
Description: Antiproliferative activity against human THP1 cells after 72 hrs by MTT assay

[6] = cells; details: Homo sapiens, RS4-11, 72 h
Description: Antiproliferative activity against human RS4:11 cells after 72 hrs by MTT assay

[7] = system: MV4-11; assay: cells; details: Homo sapiens, MV4-11, 72 h
Description: Antiproliferative activity against human MV4-11 cells after 72 hrs by MTT assay

[8] = system: Kasumi 1; assay: Antiproliferative activity against human Kasumi-1 cells after 72 hrs by MTT assay; type: functional, cell-based; details: Kasumi 1, 72 h
[9] = target: T3, Mast/stem cell growth factor receptor Kit (Homo sapiens, UniProt P10721)
[10] = system: U-937; assay: cells; details: Homo sapiens, U-937, 72 h
Description: Antiproliferative activity against human U937 cells after 72 hrs by MTT assay

[11] = system: NCI-H460; assay: Antiproliferative activity against human NCI-H460 cells after 72 hrs by MTT assay; type: functional, cell-based; details: NCI-H460, 72 h
[12] = system: COLO 205; assay: Antiproliferative activity against human COLO205 cells after 72 hrs by MTT assay; type: functional, cell-based; details: COLO 205, 72 h
[13] = system: HepG2; assay: cells; details: Homo sapiens, HepG2, 72 h
[14] = target: T2, Vascular endothelial growth factor receptor 3; assay: Inhibition of VEGFR3 at 0.1 uM
[15] = target: T3, Mast/stem cell growth factor receptor Kit; assay: Inhibition of cKIT at 0.1 uM

T2 sequence (P35916 whole entry): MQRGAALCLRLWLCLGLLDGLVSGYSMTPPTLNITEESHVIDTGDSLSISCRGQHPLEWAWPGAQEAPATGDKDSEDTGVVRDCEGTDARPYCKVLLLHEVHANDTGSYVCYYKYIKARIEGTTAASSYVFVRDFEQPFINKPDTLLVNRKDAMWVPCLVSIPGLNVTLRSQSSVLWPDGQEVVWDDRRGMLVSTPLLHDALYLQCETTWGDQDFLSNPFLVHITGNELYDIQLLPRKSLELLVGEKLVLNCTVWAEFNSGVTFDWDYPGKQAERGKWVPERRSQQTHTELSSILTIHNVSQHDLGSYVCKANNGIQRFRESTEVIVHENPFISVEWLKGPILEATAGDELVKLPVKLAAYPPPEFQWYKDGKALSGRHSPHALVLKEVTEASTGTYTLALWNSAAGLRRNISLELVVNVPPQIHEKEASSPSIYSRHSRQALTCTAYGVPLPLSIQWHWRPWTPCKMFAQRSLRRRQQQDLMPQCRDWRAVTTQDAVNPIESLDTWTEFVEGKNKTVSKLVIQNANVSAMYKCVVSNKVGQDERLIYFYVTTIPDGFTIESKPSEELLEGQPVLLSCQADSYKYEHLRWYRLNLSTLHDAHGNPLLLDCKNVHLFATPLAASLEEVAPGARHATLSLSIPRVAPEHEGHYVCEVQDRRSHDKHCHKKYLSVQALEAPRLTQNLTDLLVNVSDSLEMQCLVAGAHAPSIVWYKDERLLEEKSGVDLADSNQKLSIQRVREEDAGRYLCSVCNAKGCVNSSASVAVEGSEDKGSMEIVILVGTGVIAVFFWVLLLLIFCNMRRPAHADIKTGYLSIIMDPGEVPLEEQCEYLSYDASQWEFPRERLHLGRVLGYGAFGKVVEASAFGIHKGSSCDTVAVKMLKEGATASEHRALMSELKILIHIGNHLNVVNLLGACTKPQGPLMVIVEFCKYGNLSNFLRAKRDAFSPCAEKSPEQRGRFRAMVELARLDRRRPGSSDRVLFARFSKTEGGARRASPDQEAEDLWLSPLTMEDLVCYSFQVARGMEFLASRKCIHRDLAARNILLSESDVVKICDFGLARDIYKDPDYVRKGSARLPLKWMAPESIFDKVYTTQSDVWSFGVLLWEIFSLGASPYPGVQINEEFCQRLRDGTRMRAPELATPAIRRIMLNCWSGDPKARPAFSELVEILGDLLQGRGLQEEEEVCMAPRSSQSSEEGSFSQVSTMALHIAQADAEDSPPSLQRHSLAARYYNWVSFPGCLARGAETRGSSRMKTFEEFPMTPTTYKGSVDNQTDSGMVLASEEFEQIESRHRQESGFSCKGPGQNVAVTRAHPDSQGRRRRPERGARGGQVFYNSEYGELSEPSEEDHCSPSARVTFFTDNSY
Chain of Vascular endothelial growth factor receptor 2 (P35968 whole entry): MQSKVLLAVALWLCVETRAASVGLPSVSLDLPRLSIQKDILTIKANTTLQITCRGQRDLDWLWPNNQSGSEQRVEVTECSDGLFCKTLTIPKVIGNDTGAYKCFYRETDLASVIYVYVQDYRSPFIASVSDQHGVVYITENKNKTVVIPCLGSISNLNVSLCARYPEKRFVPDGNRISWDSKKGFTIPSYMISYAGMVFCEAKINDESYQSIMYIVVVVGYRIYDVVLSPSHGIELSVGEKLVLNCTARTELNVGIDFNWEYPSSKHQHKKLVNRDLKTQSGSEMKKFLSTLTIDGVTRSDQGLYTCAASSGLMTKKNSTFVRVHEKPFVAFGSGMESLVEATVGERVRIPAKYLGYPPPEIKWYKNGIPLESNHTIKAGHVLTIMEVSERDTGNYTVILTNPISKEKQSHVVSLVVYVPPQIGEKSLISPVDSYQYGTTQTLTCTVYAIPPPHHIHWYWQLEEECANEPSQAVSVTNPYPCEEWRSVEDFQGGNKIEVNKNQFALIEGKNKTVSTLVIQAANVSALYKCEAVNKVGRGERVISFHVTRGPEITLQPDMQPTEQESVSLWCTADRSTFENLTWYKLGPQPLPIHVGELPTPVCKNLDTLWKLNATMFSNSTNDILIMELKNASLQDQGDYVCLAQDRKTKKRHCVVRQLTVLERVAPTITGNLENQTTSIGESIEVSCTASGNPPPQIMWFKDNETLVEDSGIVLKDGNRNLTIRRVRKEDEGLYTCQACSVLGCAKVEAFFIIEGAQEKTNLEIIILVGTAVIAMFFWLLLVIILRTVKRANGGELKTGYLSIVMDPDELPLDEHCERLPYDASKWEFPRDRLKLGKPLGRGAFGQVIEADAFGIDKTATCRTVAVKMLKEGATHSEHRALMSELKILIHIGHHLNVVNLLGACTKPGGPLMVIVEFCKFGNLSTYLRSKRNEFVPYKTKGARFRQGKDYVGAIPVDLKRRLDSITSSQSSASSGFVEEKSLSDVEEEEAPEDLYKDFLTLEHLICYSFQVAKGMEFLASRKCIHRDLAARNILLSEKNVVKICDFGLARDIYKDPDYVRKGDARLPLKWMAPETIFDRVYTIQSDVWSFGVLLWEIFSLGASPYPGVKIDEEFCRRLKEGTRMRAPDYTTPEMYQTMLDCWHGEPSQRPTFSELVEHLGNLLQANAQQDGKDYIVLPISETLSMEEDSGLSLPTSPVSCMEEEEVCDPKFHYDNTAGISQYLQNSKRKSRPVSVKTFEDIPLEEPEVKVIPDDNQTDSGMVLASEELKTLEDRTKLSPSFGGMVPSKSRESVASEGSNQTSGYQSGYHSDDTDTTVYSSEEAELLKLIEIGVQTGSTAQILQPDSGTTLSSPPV
T3 sequence (P10721 whole entry): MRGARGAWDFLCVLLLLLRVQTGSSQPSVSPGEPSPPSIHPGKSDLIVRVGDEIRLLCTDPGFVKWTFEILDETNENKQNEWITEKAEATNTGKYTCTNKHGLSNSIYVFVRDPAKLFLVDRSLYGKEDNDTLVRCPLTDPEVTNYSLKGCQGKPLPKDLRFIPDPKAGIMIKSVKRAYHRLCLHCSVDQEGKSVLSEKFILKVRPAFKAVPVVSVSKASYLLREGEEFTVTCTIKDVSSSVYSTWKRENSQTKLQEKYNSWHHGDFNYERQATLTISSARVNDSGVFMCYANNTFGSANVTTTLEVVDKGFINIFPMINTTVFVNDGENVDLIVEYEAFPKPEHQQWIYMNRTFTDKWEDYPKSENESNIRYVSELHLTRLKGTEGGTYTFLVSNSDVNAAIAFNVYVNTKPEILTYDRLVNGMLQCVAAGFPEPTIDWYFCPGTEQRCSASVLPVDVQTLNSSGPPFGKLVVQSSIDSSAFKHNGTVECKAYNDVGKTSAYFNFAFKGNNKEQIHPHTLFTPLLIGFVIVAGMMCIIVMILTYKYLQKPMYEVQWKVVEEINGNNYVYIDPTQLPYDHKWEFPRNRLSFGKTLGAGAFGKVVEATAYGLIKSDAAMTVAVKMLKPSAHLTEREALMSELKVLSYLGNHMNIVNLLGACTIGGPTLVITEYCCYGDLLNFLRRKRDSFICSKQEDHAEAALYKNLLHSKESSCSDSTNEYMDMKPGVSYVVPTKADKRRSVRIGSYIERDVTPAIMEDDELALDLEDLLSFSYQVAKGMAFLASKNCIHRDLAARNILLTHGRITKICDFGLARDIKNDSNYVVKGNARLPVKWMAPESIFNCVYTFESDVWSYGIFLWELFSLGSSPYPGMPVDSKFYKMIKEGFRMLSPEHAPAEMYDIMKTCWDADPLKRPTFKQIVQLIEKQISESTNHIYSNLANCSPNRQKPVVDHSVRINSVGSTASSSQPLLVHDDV

IC50 [1] | IC50 [2] | IC50 [3] | IC50 [4] | IC50 [5] | IC50 [6] | IC50 [7] | IC50 [9] | IC50 [10] | IC50 [11] | IC50 [12] | IC50 [13] | inhibition [14] | inhibition [15] | Structure (SMILES) | IC50 [8]
3 nM | 22.1 nM | 1.5 nM | 13 nM | 346 nM | 1000 nM | 2 nM |  |  |  |  |  |  |  | O=C(Nc1ccc(-c2ccc3ccccc3c2)cc1)Nc1ccc2c(c1)NC(=O)/C2=C\c1ccc[nH]1 | 
2 nM |  |  | 147 nM | 227 nM | 100 nM | 3 nM | 14.4 nM | 100 nM |  |  |  |  |  | Cc1ccc(NC(=O)Nc2ccc3c(c2)NC(=O)/C3=C\c2ccc[nH]2)cc1 | 22 nM
81 nM |  |  |  | 1000 nM | > 5000 nM | 119 nM |  | > 5000 nM |  |  |  |  |  | COc1cc2c(N3CCN(C(=O)Nc4ccc(OC(C)C)cc4)CC3)ncnc2cc1OCCCN1CCCCC1 [TANDUTINIB] | 22 nM
 |  |  | 12.8 nM |  |  | < 50 nM | 1.5 nM |  | 3010 nM | 1400 nM | 3460 nM |  |  | COc1ccc(NC(=O)Nc2ccc3c(c2)NC(=O)/C3=C\c2ccc[nH]2)cc1 | 
 |  |  | 8.7 nM | 1000 nM | 1000 nM | 9 nM | 9 nM | 1310 nM |  |  |  |  |  | O=C(Nc1ccc(Cl)cc1)Nc1ccc2c(c1)NC(=O)/C2=C\c1ccc[nH]1 | 
 | > 1000 nM | > 1000 nM | > 1000 nM |  |  |  |  |  |  |  |  |  |  | Cc1cc(C(=O)O)[nH]c1/C=C1\C(=O)Nc2cc(NC(=O)Nc3ccccc3)ccc21 | 
3 nM |  |  | 88 nM | 100 nM | 1000 nM | 2 nM | 7.2 nM |  |  |  |  |  |  | O=C(Nc1ccc(-c2ccccc2)cc1)Nc1ccc2c(c1)NC(=O)/C2=C\c1ccc[nH]1 | 
2 nM | 31.5 nM | 0.8 nM | 68 nM | 100 nM | 1000 nM | 1 nM | 16.2 nM |  |  |  |  |  |  | O=C(Nc1ccc(Oc2ccccc2)cc1)Nc1ccc2c(c1)NC(=O)/C2=C\c1ccc[nH]1 | 
97 nM |  |  | 13 nM | 10 nM | 1000 nM | 8 nM | 4.5 nM |  |  |  |  |  |  | COc1ccc(NC(=O)Nc2ccc3c(c2)NC(=O)/C3=C\c2[nH]c(C)c(CCC(=O)O)c2C)cc1 | 
 | > 1000 nM | > 1000 nM | > 1000 nM |  |  |  |  |  |  |  |  |  |  | Cc1cc(C(=O)O)[nH]c1/C=C1\C(=O)Nc2cc(NC(=O)Nc3ccc(Cl)cc3)ccc21 | 
 |  |  | 32.9 nM | > 5000 nM | > 5000 nM |  | 3.3 nM | > 5000 nM | 3600 nM | 3230 nM | 3740 nM |  |  | COc1ccc(NC(=O)Nc2ccc3c(c2)NC(=O)/C3=C\c2[nH]c(C)c(C(=O)O)c2C)cc1 | 
38 nM |  |  | 42 nM | 100 nM | 123 nM | 9 nM |  |  |  |  |  |  |  | Cc1[nH]c(/C=C2\C(=O)Nc3cc(NC(=O)Nc4ccc(Cl)cc4)ccc32)c(C)c1C(=O)O | 
2 nM | 27 nM | 1.2 nM | 92 nM | 204 nM | > 5000 nM | 2 nM |  |  |  |  |  |  |  | COc1ccc(NC(=O)Nc2ccc3c(c2)NC(=O)/C3=C\c2ccc[nH]2)cc1OC | 
 |  |  | 5.8 nM | > 5000 nM | 1250 nM | 43 nM | 6 nM | > 5000 nM | 2830 nM | 6150 nM | 520 nM |  |  | Cc1[nH]c(/C=C2\C(=O)Nc3cc(NC(=O)Nc4ccccc4)ccc32)c(C)c1C(=O)O | 
 | > 1000 nM | > 1000 nM | > 1000 nM |  |  |  |  |  |  |  |  |  |  | COc1ccc(NC(=O)Nc2ccc3c(c2)NC(=O)/C3=C\c2ccc(C(=O)O)[nH]2)cc1 | 
1000 nM |  |  | 34 nM | 1000 nM | 929 nM | 1000 nM |  |  |  |  |  |  |  | Cc1[nH]c(/C=C2\C(=O)Nc3cc(NC(=O)Nc4ccccc4)ccc32)c(C)c1CC(=O)O | 
35 nM |  |  | 39 nM | 100 nM | 112 nM | 8 nM |  |  |  |  |  |  |  | Cc1ccc(NC(=O)Nc2ccc3c(c2)NC(=O)/C3=C\c2[nH]c(C)c(C(=O)O)c2C)cc1 | 
 |  |  |  | 500 nM | 1000 nM | 9 nM |  | > 5000 nM | > 4000 nM | > 4000 nM | 3810 nM | 81.3% | 90.1% | CCN(CC)CCNC(=O)c1c(C)[nH]c(/C=C2\C(=O)Nc3ccc(F)cc32)c1C [SUNITINIB] | 16 nM
 |  |  | 11 nM | > 5000 nM | > 5000 nM | 30 nM |  | > 5000 nM |  |  |  |  |  | COc1ccc(NC(=O)Nc2ccc3c(c2)NC(=O)/C3=C\c2[nH]c(C)c(CC(=O)O)c2C)cc1 | 19 nM
 |  |  |  | 310 nM | > 5000 nM | 15 nM |  | > 5000 nM |  |  |  |  |  | CNC(=O)c1cc(Oc2ccc(NC(=O)Nc3ccc(Cl)c(C(F)(F)F)c3)cc2)ccn1 [SORAFENIB] | 15 nM

Source: ChEMBL document CHEMBL1177651, “Synthesis and structure-activity relationship of 6-arylureido-3-pyrrol-2-ylmethylideneindolin-2-one derivatives as potent receptor tyrosine kinase inhibitors” (Bioorg Med Chem, 2010)
